One test relates to HL-60. Description: CellTiter-Glo cell viability assay, HL-60. The class given is cell-based. Particulars: Homo sapiens, HL-60; Leukemia; 72 hrs; 50% growth inhibition relative to control; read-out: HL-60 IC50. An excerpt: (§1) The CellTiter-Glo® Luminescent Cell Viability Assay is a homogeneous method of determining the number of viable cells in culture based on quantitation of the ATP present, which signals the presence of metabolically active cells. The homogeneous assay procedure involves addition of a single reagent directly to cells cultured in serum-supplemented medium. The homogeneous format results in cell lysis and generation of a luminescent signal proportional to the amount of ATP present. The CellTiter-Glo® Assay relies on the properties of a proprietary thermostable luciferase (Ultra-Glo. Recombinant Luciferase), which generates a stable glow-type Luminescent signal. The half-life of the luminescent signal resulting from this reaction is greater than five hours. This extended half-life eliminates the need for reagent injectors and provides flexibility for continuous or batch-mode processing of multiple plates. The unique homogeneous format reduces pipetting errors that may be introduced during the multiple steps required by other ATP-measurement methods.
(§2) 96 Well cell culture plates were seeded with 10^3 mammalian cells (Colo205, HL-60, SW620, HCT116, MCF-7 and MV-411) in 100 μl culture medium. The cells were incubated overnight prior to initiating the assay. Control wells were prepared on a plate containing medium only to obtain a value for background luminescence.
(§3) Compounds to be tested were added to experimental wells and incubated for 72 hrs (Colo205, HL-60, MV-411), 168 hrs (HCT116, SW620) or 240 hrs (MCF-7). Wells were also set up to as vehicle controls with the addition of 0.1% DMSO. At the end of the incubation period, the plates were equilibrated to room temperature for approximately 30 minutes.
(§4) Lyophilized CellTiter-Glo® Substrate and the CellTiter-Glo® Buffer were warmed to room temperature. The CellTiter-Glo® Buffer was mixed with the CellTiter-Glo® Substrate to reconstitute the lyophilized enzyme/substrate mixture. This forms the CellTiter-Glo® Reagent. The contents were mixed by gently vortexing, swirling or by inverting the contents to obtain a homogeneous solution. 100 μl of CellTiter-Glo® Reagent was added to the cell culture medium present in each well. The contents were mixed for 2 minutes on an orbital shaker to induce cell lysis. The plates were allowed to incubate at room temperature for 10 minutes to stabilize luminescent signal. The contents of the 96 well cell culture plate were then transferred to a white 96 well Optiplate (Perkin Elmer). The luminescence was recorded on Wallac 1420 VICTOR^2 V Multilabel Platereader (An integration time of 0.25-1 second per well).
(§5) 10 mM DMSO stock Compounds were serially diluted threefold in DMSO. Subsequent dilutions made into cell culture media prior to addition to cells to maintain the DMSO concentration at or below 0.1% to avoid cell toxicity.
(§6) The IC50s in Table 2 are the concentration at which 50% growth inhibition relative to control occurs.
For orientation: Cellular ATP, detected with luciferase, serves as a proxy for viable cell number.

A further test deals with MV-411. Nature of the test: CellTiter-Glo cell viability assay, MV-411. Format: cell-based. Particulars: Homo sapiens, MV4-11; Leukemia; 72 hrs; 50% growth inhibition relative to control; read-out: MV-411 IC50.
From the text: as §1, §2, §3, §4, §5, §6

A further test deals with SW620. Nature of the test: CellTiter-Glo cell viability assay, SW620. Format: cell-based. Conditions: Homo sapiens, SW-620; Colorectal cancer; 168 hrs; 50% growth inhibition relative to control; read-out: SW620 IC50.
From the text: as §1, §2, §3, §4, §5, §6

The subject of a further test is HCT116. Nature of the test: CellTiter-Glo cell viability assay, HCT116. The class given is cell-based. Particulars: Homo sapiens, HCT-116; Colorectal cancer; 168 hrs; 50% growth inhibition relative to control; read-out: HCT116 IC50.
From the text: as §1, §2, §3, §4, §5, §6

The test system of another test is MCF-7. Nature of the test: CellTiter-Glo cell viability assay, MCF-7. The class given is cell-based. Conditions: Homo sapiens, MCF7; Breast Cancer; 240 hrs; 50% growth inhibition relative to control; read-out: MCF-7 IC50.
From the text: as §1, §2, §3, §4, §5, §6

The next test deals with Colo205. Description: CellTiter-Glo cell viability assay, Colo205. The class given is cell-based. Particulars: Homo sapiens, COLO 205; Colorectal cancer; 72 hrs; 50% growth inhibition relative to control; read-out: Colo205 IC50.
From the text: as §1, §2, §3, §4, §5, §6

For test [1], the target named is T1, full-length human Aurora A (Homo sapiens, UniProt O14965).
T1 construct: The full-length human Aurora A carrying His6 tag at the N-terminus; His6 (N); purchased Invitrogen, Carlsbad, Calif
T1 sequence (O14965 1-403): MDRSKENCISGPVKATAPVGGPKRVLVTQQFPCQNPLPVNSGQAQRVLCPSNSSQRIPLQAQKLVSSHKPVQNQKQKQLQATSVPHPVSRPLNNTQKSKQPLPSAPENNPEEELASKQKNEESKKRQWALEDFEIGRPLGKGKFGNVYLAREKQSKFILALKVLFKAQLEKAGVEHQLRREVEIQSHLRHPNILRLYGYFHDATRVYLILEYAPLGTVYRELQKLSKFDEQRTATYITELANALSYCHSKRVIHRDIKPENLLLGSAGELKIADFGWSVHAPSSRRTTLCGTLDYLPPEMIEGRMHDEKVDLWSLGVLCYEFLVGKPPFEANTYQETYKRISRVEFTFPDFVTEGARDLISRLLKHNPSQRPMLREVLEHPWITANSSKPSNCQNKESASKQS
Description: Aurora A phosphocellulose filter binding kinase activity assay. The class given is biochemical. Particulars: 11 nM Aurora A, 10 μM ATP, 50 μM Kemptide, 45 min; read-out: Aur-A IC50. As for the experimental part:
(§7) Kinase activity of Aurora kinases was measured by phosphocellulose filter binding assay. The full-length human Aurora A carrying His6 tag at the N-terminus (Invitrogen, Carlsbad, Calif.) and the full-length human Aurora B (N-terminal GST fusion) co-expressed and co-purified with the His6-INCENP INBOX, aminoacids 803-918 (Carna BioSciences, Japan) were used as the enzyme in the assays. Tested compounds were diluted in DMSO and pre-incubated with the enzyme and ATP/Mg^2+ mixture for at least 10 minutes. The reaction was started by addition of the Kemptide peptide substrate (LRRASLG) and allowed to proceed for 45 min at room temperature. Each reaction in a final volume of 40 μl contained 50 μM Kemptide, 10 μM [γ-^33P]ATP (1 Ci/mmol) and either 11 nM Aurora A or 1.5 nM Aurora B/INCENP complex in the buffer containing 10 mM MgCl2, 5% DMSO, 20 mM MOPS, pH 7.2, 25 mM β-glycerol phosphate, 5 mM EGTA, 1 mM Na3VO4 and either 0.1 mg/ml of BSA and 1 mM DTT for Aurora A or 0.01% Triton-X100 and 2 mM DTT for Aurora B. The reaction was stopped with 25 μl of 5% H3PO4, and 45 μl of the mixture was transferred into a MultiScreen-PH filterplate (Millipore) pre-washed with 0.85% H3PO4. The filterplate was washed 4 times with 200 μl of 0.85% H3PO4 on a vacuum manifold. Scintillation fluid (50 μl of Ultima Gold™ LLT, PerkinElmer, Waltham, Mass.) was added to each well, and after 1-hr incubation at room temperature the plates were counted on MicroBeta (PerkinElmer, Waltham, Mass.) plate reader. […] Percent inhibition values were calculated based on the counts of the positive and negative controls, and these values were regressed against inhibitor concentration and fit into a four parameter model. From this fit the IC50 values (the inhibitor concentration at which 50% inhibition occurs) were derived as the inflection point on the semi-logarithm inhibition curve.

Test [2] concerns the target T2, full-length human Aurora B/INCENP complex (Homo sapiens, UniProt Q96GD4).
T2 construct: the full-length human Aurora B (N-terminal GST fusion); GST (N); purchased Carna BioSciences, Japan
Description: Aurora B phosphocellulose filter binding kinase activity assay. Format: biochemical. Particulars: 1.5 nM Aurora B/INCENP complex, 10 μM ATP, 50 μM Kemptide, 45 min; read-out: Aur-B IC50. As for the experimental part: as §7

Molecules are shown by their SMILES.

T2 sequence (Q96GD4 whole entry, the tested form may be a part): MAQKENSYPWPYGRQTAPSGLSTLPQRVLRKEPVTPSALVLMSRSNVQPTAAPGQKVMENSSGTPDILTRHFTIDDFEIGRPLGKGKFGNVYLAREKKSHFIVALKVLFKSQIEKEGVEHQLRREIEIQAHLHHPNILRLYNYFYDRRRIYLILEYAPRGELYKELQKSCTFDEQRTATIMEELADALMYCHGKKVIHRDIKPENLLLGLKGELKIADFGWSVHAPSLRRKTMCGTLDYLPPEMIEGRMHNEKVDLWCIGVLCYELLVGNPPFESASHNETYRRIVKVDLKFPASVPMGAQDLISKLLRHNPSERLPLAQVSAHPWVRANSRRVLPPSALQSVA
T2 sequence (Q9NQS7 803-918 partner limits assumed): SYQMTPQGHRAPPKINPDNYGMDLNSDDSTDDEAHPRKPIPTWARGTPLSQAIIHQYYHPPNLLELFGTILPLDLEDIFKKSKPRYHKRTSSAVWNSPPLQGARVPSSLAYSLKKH

What is called IC50 is the concentration that inhibits the measured activity by half. Turning to `CC(=O)O[C@H]1C(=O)[C@@]2(C)[C@H]([C@H](OC(=O)c3ccccc3)[C@]3(O)C[C@H](OC(=O)[C@H](O)[C@@H](NC(=O)c4ccccc4)c4ccccc4)C(C)=C1C3(C)C)[C@]1(OC(C)=O)CO[C@@H]1C[C@@H]2O` [Taxol, reference compound], the IC50 was 2.16 nM in the test on HL-60; 6.2 nM in the test on MV-411; 4.91 nM in the test on SW620; 2.04 nM in the test with HCT116; 0.58 nM in the test on MCF-7; 2.54 nM in the test with Colo205.

Take `C[C@@H]1CN(C(=O)c2ccc(-c3ccc4c(Nc5cc(CC(=O)Nc6cccc(F)c6)[nH]n5)ncnc4c3)cc2)C[C@H](C)N1` [Compound 11, 2-(3-(7-(4-((3S,5R)-3,5-dimethylpiperazine-1-carbonyl)phenyl)quinazolin-4-ylamino)-1H-pyrazol-5-yl)-N-(3-fluorophenyl)acetamide]: the IC50 in test [1] amounted to 6.42 nM; in test [2], 1.37 nM; in the test on HCT116, 1.62 nM; in the test with Colo205, 2.9 nM.

For `O=C(Cc1cc(Nc2ncnc3cc(-c4ccc(C(=O)N5CCN(CCO)CC5)cc4)ccc23)n[nH]1)Nc1cccc(F)c1F` [Compound 15, N-(2,3-Difluorophenyl)-2-(3-(7-(4-(4-(2-hydroxyethyl)piperazine-1-carbonyl)phenyl)quinazolin-4-ylamino)-1H-pyrazol-5-yl)acetamide], the IC50 in test [1] was 1.89 nM; in test [2] it was 0.63 nM; with HCT116, 1.71 nM; in the test on Colo205, 3.07 nM.

On to `O=C(Cc1cc(Nc2ncnc3ccccc23)n[nH]1)Nc1cccc(F)c1` [Compound 8, N-(3-fluorophenyl)-2-(3-(quinazolin-4-ylamino)-1H-pyrazol-5-yl)acetamide], for which the IC50 in test [1] stood at 2480 nM; in test [2] it was 14.9 nM.

On to `O=C(Cc1cc(Nc2ncnc3cc(-c4ccc(C(=O)N5CCN(CCOP(=O)(O)O)CC5)cc4)ccc23)n[nH]1)Nc1cccc(F)c1` [Compound 13, 2-(4-(4-(4-(5-(2-(3-Fluorophenylamino)-2-oxoethyl)-1H-pyrazol-3-ylamino)quinazolin-7-yl)benzoyl)piperazin-1-yl)ethyl dihydrogen phosphate], for which the IC50 in test [1] was found to be 1.91 nM; in test [2] it was 0.34 nM; in the test on HCT116 it was 6.43 nM; in the test on Colo205, 9.39 nM.

For the compound `O=C(Cc1cc(Nc2ncnc3cc(-c4ccc(C(=O)N5CCN(CCF)CC5)cc4)ccc23)n[nH]1)Nc1cccc(F)c1` [Compound 12, 2-(3-(7-(4-(4-(2-Fluoroethyl)piperazine-1-carbonyl)phenyl)quinazolin-4-ylamino)-1H-pyrazol-5-yl)-N-(3-fluorophenyl)acetamide], the IC50 was 2.86 nM in test [1], 0.74 nM in test [2], 3.98 nM with HCT116 and 7.82 nM in the test on Colo205.

On to `O=C(Cc1cc(Nc2ncnc3cc(-c4ccc(C(=O)N5CCN(CCO)CC5)cc4)ccc23)n[nH]1)Nc1cc(F)cc(F)c1` [Compound 14, N-(3,5-Difluorophenyl)-2-(3-(7-(4-(4-(2-hydroxyethyl)piperazine-1-carbonyl)phenyl)quinazolin-4-ylamino)-1H-pyrazol-5-yl)acetamide], for which the IC50 in test [1] stood at 2.29 nM; in test [2], 0.83 nM; in the test with HCT116, 5.75 nM; with Colo205, 8.11 nM.

For `CN1CCN(S(=O)(=O)c2ccc(-c3ccc4c(Nc5cc(CC(=O)Nc6cccc(F)c6)[nH]n5)ncnc4c3)cc2)CC1` [Compound 7, N-(3-fluorophenyl)-2-(3-(7-(4-(4-methylpiperazin-1-ylsulfonyl)phenyl)quinazolin-4-ylamino)-1H-pyrazol-5-yl)acetamide], the IC50 is 13.9 nM in test [1] and 0.93 nM in test [2].

As to `O=C(Cc1cc(Nc2ncnc3cc(-c4ccc(C(=O)N5CCN(C6CC6)CC5)cc4)ccc23)n[nH]1)Nc1cccc(F)c1` [Compound 10, 2-(3-(7-(4-(4-Cyclopropylpiperazine-1-carbonyl)phenyl)quinazolin-4-ylamino)-1H-pyrazol-5-yl)-N-(3-fluorophenyl)acetamide], the IC50 in test [1] amounted to 4.62 nM; in test [2], 1.23 nM; in the test with HCT116 it was 1.57 nM; with Colo205, 5.35 nM.

In the case of `O=C(Cc1cc(Nc2ncnc3cc(-c4ccc(C(=O)N5CCN(CC6CC6)CC5)cc4)ccc23)n[nH]1)Nc1cccc(F)c1` [Compound 9, 2-(3-(7-(4-(4-(Cyclopropylmethyl)piperazine-1-carbonyl)phenyl)quinazolin-4-ylamino)-1H-pyrazol-5-yl)-N-(3-fluorophenyl)acetamide], the IC50 stood at 9.51 nM in test [1], 1.88 nM in test [2], 4.38 nM in the test with HCT116 and 9.88 nM in the test on Colo205.

(Values after patent US20110136766A1, “AURORA KINASE INHIBITORS” (Vitae Pharmaceuticals, Inc., priority 2008, published 2011).)
